Assay results published in patent US7291295B2, “Method for precipitating finely divided solid particles” (Sociedad Espanola de Carburos Metalicos, S.A., priority 2000, dated 2007).

Assay: Particle size and size distribution of precipitate by Coulter technique using light dispersion
Type: physicochemical
Method: FIGS. 8, 10 and 11 show the distribution of size of the particles using the Coulter technique using light dispersion.
The geometrical characteristics of the particles of precipitate (size and distribution of sizes) are measured by the Coulter technique that uses light dispersion with Fourier lenses. Thus, by “particle size” is meant the value of the median of the curve of distribution of particles, in % in volume, and by “distribution of sizes” is meant the value of the standard deviation from the same curve.

## CC(=O)Oc1ccccc1C(=O)O [aspirin]
Example 6, method of the invention, acetone-CO2, 70 bar, 25° C., molar fraction of CO2 0.6
  average size of particles of precipitate: 14 μm

## CC(=O)Nc1ccc(O)cc1 [acetaminophen]
Example 1, method of the invention, ethanol-CO2, 100 bar, 42° C., 1,750 ml solution
  average size of particles of precipitate: 15 μm
Example 2, GAS process fraction (filter 11), ethanol-CO2, 100 bar, 42° C.
  average size of particles of precipitate: 50 μm
Example 2, method of the invention (filter 13), ethanol-CO2, 100 bar, 42° C., 1,600 ml solution
  average size of particles of precipitate: 15 μm
Example 5, GAS process (filter 11), acetone-CO2, 100 bar, 42° C.
  average size of particles of precipitate: 50 μm

## CCCCNc1ccc(NCCCC)c2c1C(=O)c1ccccc1C2=O [solvent blue 35]
Example 3, method of the invention, acetone-CO2, 60 bar, 25° C., 1,400 ml solution (FIG. 8)
  average size of particles of precipitate: 5 μm
Example 4, GAS process fraction (filter 11), acetone-CO2, 60 bar, 25° C. (FIG. 10)
  average size of particles of precipitate: 70 μm
Example 4, method of the invention (filter 13), acetone-CO2, 60 bar, 25° C., 640 ml solution (FIG. 11)
  average size of particles of precipitate: 4 μm

## C1N2CN3CN1CN(C2)C3 [methenamine]
Example 8, method of the invention, ethanol-CO2, 100 bar, 25° C., molar fraction of CO2 0.7
  average size of particles of precipitate: 8 μm

## CCCCCCCCCCCCCCCCCC(=O)O [stearic acid]
Example 7, method of the invention, ethyl acetate-CO2, 100 bar, 25° C., molar fraction of CO2 0.6
  average size of particles of precipitate: 2 μm
